Assay results as given in paper PMC10051705, “Leishmanicidal Activity of Guanidine Derivatives against Leishmania infantum” (Tropical Medicine and Infectious Disease, 2023).

Assays:
monocytes in PBMCs = test: nitrite assay (Griess reaction) in PBMC/monocytes infected or not with L. infantum; type: cell-based, human; details: for nitrite production: compound at 1× EC50, 24 h
Procedure: To perform the nitrite assay, PBMCs were obtained from five healthy volunteers (3 males, mean age 28.67 ± 2.96; and 2 females, mean age 28.50 ± 0.5) from João Pessoa, PB Brazil. Briefly, peripheral blood was diluted 1:1 with phosphate-buffered saline (PBS) and slowly layered over using Ficoll® Paque PLUS (GE Healthcare, Waukesha, WI, USA). Tubes were centrifuged at 400× g for 40 min at 20 °C. After centrifugation, PBMCs were harvested, washed three times with PBS, and resuspended in RPMI medium supplemented with antibiotics (penicillin 200 U/mL and streptomycin 0.1 mg/mL), 1 mM l-glutamine, and 10% inactivated human serum. Cell viability was assessed using a trypan blue dye exclusion assay. Cells were counted using a hemocytometer.
Promastigotes were prepared as previously described. Briefly, to confirm the infection, the L. infantum promastigotes were labeled with carboxyfluorescein diacetate succinimidyl ester (CFSE) (CellTrace ™ CFSE Cell Proliferation Kit; Eugene, OR, USA). The suspension was incubated for 15 min at 5% CO2, 37 °C, and washed three times with PBS containing 10% inactivated FBS producing CFSE-labeled L. infantum, which was added to PBMCs. The infection ratio was set at 1:10 (monocyte: L. infantum) for 3 h. After the infection, cells were washed three times with PBS supplemented with 10% FBS.
The plates were incubated for 24 h in a 5% CO2 incubator at 37 °C. The plates were centrifuged at 200× g for 8 min at 4 °C, and the supernatant was collected to measure reactive nitrogen production. CD14 surface antibody (PERCP-Cy5.5; clone MΦP9) was used for monocyte labeling (Figure S1). After adding the antibody, the plate was incubated at 4 °C for 15 min, protected from light. The cells were washed with ice-cold PBS buffer. The plate was centrifuged at 200× g again for 10 min at 4 °C. The supernatant was removed, the cells were resuspended in 100 µL of PBS buffer and 100 µL of 4% formaldehyde solution, then read on a flow cytometer (BD FACSCanto II, BD Biosciences, San Jose, CA, USA). FlowJo v.10.8.1 software was used to analyze the raw data. After obtaining PBMC, the cells were plated and incubated with LQOFG-7 and AmB at a concentration of 1× the EC50 value, with media or lipopolysaccharide (LPS) stimulus (lipopolysaccharide derived from Escherichia coli, Sigma-Aldrich O111:B4) at 100 ng/mL [26, 27, 28]. The culture supernatants from those infected and non-infected were evaluated for the stable end-product of reactive nitrogen species (NO, nitrates, and nitrites) using the Griess reaction, according to the Cayman Chemical instruction manual (Cayman Chemical, Ann Arbor, MI, USA). The nitrite level was determined by measuring the absorbance at a wavelength of 540 nm using a microplate reader (BioTek-ELx800).

[1] = tested on: L. infantum axenic amastigotes; test: axenic amastigote inhibition assay (MTT); type: cell-based; details: Leishmania infantum, 24 h; for EC50: 37 °C, pH 5.5, MTT
[2] = tested on: L. infantum promastigotes; test: promastigote growth inhibition assay (MTT); type: cell-based; details: Leishmania infantum, 72 h, 26 °C
Procedure: The promastigote forms of Leishmania (Leishmania) infantum [IOC/L0579(MHOM/BR/1974/PP75)] were cultured in Schneider’s medium, pH 7.0, supplemented with 20% heat-inactivated fetal bovine serum (FBS), 2% male human urine, 100 U/mL of penicillin, and 100 mg/L of streptomycin, and the parasites were maintained at 26 °C. The procedure to obtain the extracellular axenic amastigote form of L. infantum was based on methods previously described that were modified using a Schneider medium readjusted to pH 5.5 at 37 °C. The culture of promastigote forms in the stationary phase was centrifuged, and the medium of these cells was replaced and differentiated into axenic amastigotes by temperature and medium pH changes. Parasites were maintained in culture for no more than 20 passages.
The promastigote growth inhibition assay was performed as previously described. Promastigotes were harvested during the exponential growth phase. They were incubated in the presence and absence of several concentrations of LQOFG-2, LQOFG-6, LQOFG-7 (500 to 7.8 µM), and AmB (10 to 0.078 µM) as the positive control. The plate was incubated at 26 °C for 72 h in a biological oxygen demand (B.O.D.) incubator using a Schneider’s medium (Schneider’s Insect Medium 24.5 g/L; L-glutamine 1.8 g/L; glucose 2 g/L and sodium bicarbonate 0.4 g/L; Sigma-Aldrich—St. Louis—USA) supplemented. The growth inhibition was evaluated using an MTT assay kit (Amresco, Solon, OH, USA) according to the manufacturer’s protocol. After 4 h of incubation, 10% sodium dodecyl sulfate was added to dissolve the formazan crystals. The absorbance (540 nm) was measured using a plate reader (Biosystems model ELx800; Curitiba, PR, Brazil). […] Three independent experiments we performed in triplicate.

[3] = tested on: peripheral blood mononuclear cells (PBMCs); test: in vitro cytotoxicity in PBMC (MTT); type: cell-based, human; details: human PBMC, 24 h, MTT
Procedure: In vitro cytotoxicity was evaluated using peripheral blood mononuclear cells (PBMCs) collected from three healthy volunteers (2 males, mean age 33; and 1 person). PBMCs were separated by density gradient using Ficoll Paque PLUS (GE Healthcare, USA), pelleted by centrifugation (400× g for 40 min), and resuspended in RPMI 1640 medium, then supplemented with 10% fetal bovine serum and 1% antibiotic solution (penicillin 5000 Units/mL + streptomycin 5000 μg/mL). After 24 h of treatment, cell viability was evaluated by the modified colorimetric method based on the tetrazolium dye MTT (3-(4,5-dimethylthiazol-2-yl)-2,5- diphenyltetrazolium bromide). The MTT assay was used for in vitro cytotoxicity as previously described with the following modifications: cells were exposed to serially diluted concentrations of LQOFG-2, LQOFG-6, LQOFG-7 (1000 to 7.8 µM), and AmB (100 to 0.78 µM). The plates were kept at 37 °C for 24 h. MTT (5 mg/mL) was added and incubated for 4 h at 37 °C, after which the plates were centrifuged, the supernatant was discarded, and DMSO was added, leaving the plates under stirring to solubilize the formazan salts. Absorbance was measured at 540 nm using a plate reader (ELx800; Curitiba, PR, Brazil). The mean percentage of viable cells was calculated relative to the untreated control.

Row | EC50 [1] [µM] | IC50 [2] [µM] | Structure (SMILES) | nitrite production (monocytes in PBMCs; monocytes infected with L. infantum, LPS-activated (100 ng/mL)) [µM] | increase in nitrite production (in words) (monocytes in PBMCs; monocytes infected with L. infantum, treatment at EC50) | CC50 [3] [µM] | nitrite production (monocytes in PBMCs; monocytes infected with L. infantum, not LPS-activated, untreated infected 0.367 ± 1.48 µM) [µM] | nitrite production (monocytes in PBMCs; uninfected human monocytes (PBMC), untreated control 3.81 ± 1.36 µM) [µM] | inhibition at 31.2 µM ([1]; at 31.2 µM, read-out: inhibition of axenic amastigotes compared to the control (untreated)) [%]
1 | 0.3 | 1.5 ± 0.23 | C[C@@H]1[C@H](O)[C@@H](C)/C=C/C=C/C=C/C=C/C=C/C=C/C=C/[C@H](O[C@@H]2O[C@H](C)[C@@H](O)[C@H](N)[C@@H]2O)C[C@@H]2O[C@](O)(C[C@@H](O)C[C@@H](O)[C@H](O)CC[C@@H](O)C[C@@H](O)CC(=O)O[C@H]1C)C[C@H](O)[C@H]2C(=O)O [Amphotericin B, reference compound] | 13.6 ± 4.25 | no significant increase | 53.8 ± 3.59 |  |  | 
2 | 18.6 ± 1.23 | 23.6 ± 0.64 | O=C(/N=C(/NCc1ccccc1)Nc1ccc(I)cc1)c1ccccc1 [LQOFG-7, (Z)-N-((benzylamine)((4-iodophenyl)amino)methylene)benzamide] |  |  |  | 13.5 ± 1.30 | 10.5 ± 3.58 | 58
